The values below come from US20230035688A1, “METHOD FOR TREATING GASTRIC CANCER BY BLOCKING CCL28 CHEMOTACTIC PATHWAY” (SHANGHAI JIAO TONG UNIVERSITY, priority 2019, published 2023).

One experiment relates to CCL28 promoter. The experiment can be described thus: CCL28 promoter luciferase reporter gene activity with β-catenin overexpression. It is filed as cell-based, human. The note with it: FIG. 2D. The text has this:
(§1) Wnt/β-catenin reporter plasmid M50 Super 8X TOPFlash (Addgene plasmid #12456) and mutant control M51 Super 8X FOPFlash (Addgene plasmid #12457) are gifts from Randall Moon. The promoter of the human CCL28 gene (2.8 kb, −2576/+205 relative to the transcriptional start site) was cloned into the firefly luciferase reporter gene construct pGL4. Mutations of potential TCF/LEF binding sites on the CCL28 promoter were introduced using the Hieff Mut™ Multisite Directed Mutagenesis Kit (Yeasen, Shanghai) to produce a mutant CCL28 promoter report construct (pGL4-CCL28.mut). The plasmids were transfected using a jetPRIME transfection reagent (Polybus Transfection). Transfection efficiency was standardized by co-transfection with a pRL-CMV reporter gene containing the Ranilla Luciferase gene. Firefly and Ranilla luciferase activities were measured using a Dual-Glo luciferase assay system (Promega).
(§2) In this Example, the correlation between CCL28 and β-catenin signaling pathway structure is analyzed in combination with bioinformatics, and then the relationship between the two is verified in the cell model. […] After using β-catenin/TCF, the transcriptional activity of CCL28 promoter was detected after shRNA knockdown of TCF/LEF transcription factor family members or overexpression of TCF/LEF members.

Experiment [1] relates to Wnt pathway reporter gene TOPflash. Description: Wnt pathway reporter gene TOPflash luciferase activity with β-catenin overexpression. It is filed as cell-based, human. To be noted: FIG. 2D.
Excerpt: as §1, §2

Another experiment deals with CCL28 protein. Description: CCL28 protein expression in stomach of H. felis/MNU in situ gastric cancer mice (Western blotting, ELISA). It is filed as in vivo, mouse. To be noted: intraperitoneal injection; Western blotting (FIG. 3A) and ELISA (FIG. 3B). From the text:
The proteins in gastric cancer cell line and mouse gastric tissue were lysed with RIPA lysate (Thermo Scientific) added with protease inhibitor (Roche), and the protein concentration was detected using BCA Protein Assay Reagent (Thermo Scientific). The detected proteins were as follows: β-catenin (Abcam), CCL28 (R & D Systems), active β-catenin (Merck), GAPDH (Abcam) and β-tubulin (Abcam).
In order to establish gastric cancer mouse mode induced by Helicobacter felis (H. felis) and N-Methyl-N-nitrosourea (MNU), 8-week-old wild-type mice were fed by gavage with H. felis strain (ATCC 49179) three times a week, followed by given drinking water containing 240 ppm MNU every other week for a total of 12 weeks.

The next experiment concerns colon tumor cell lines. The note with it: cited from earlier work.

Turning to `Cc1cc(/C=C2\SC(=O)N(c3ccccc3)C2=O)c(C)n1-c1cccnc1` [iCRT14], the “up-regulation effect of β-catenin on CCL28 promoter activity” value in the experiment on CCL28 promoter is on record as “reduces the up-regulation effect of β-catenin on CCL28 promoter activity”. Also, in experiment [1], the “activity of Wnt pathway reporter gene TOPflash” value is “reduced the activity of both reporter genes”. Besides, the “expression of CCL28 protein in the stomach” value in the experiment on CCL28 protein is on record as “significantly reduces the expression of CCL28 protein in the stomach”. In the experiment with colon tumor cell lines, the cell cycle arrest result was “G0/G1 arrest”.
